Source: PubChem BioAssay (NCI)
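The concentration for 50% growth inhibition is given as GI50. TGI is the concentration that stops growth completely.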

Legend:
Test in all cases: NCI tumour cell line growth inhibition, 384-well format
HCT-15 colon = tested on: HCT-15 colon
NCI-H226 lung = tested on: NCI-H226 lung
OVCAR-5 ovarian = tested on: OVCAR-5 ovarian
CAKI-1 renal = tested on: CAKI-1 renal
HOP-92 NSCLC = tested on: HOP-92 NSCLC
IGROV1 ovarian = tested on: IGROV1 ovarian
SNB-75 CNS = tested on: SNB-75 CNS
KM12 colon = tested on: KM12 colon
MDA-MB-435 melanoma = tested on: MDA-MB-435 melanoma
SF-539 CNS = tested on: SF-539 CNS
SW-620 colon = tested on: SW-620 colon
SR leukemia = tested on: SR leukemia
K-562 leukemia = tested on: K-562 leukemia
SN12C renal = tested on: SN12C renal
HCT-116 colon = tested on: HCT-116 colon
MALME-3M melanoma = tested on: MALME-3M melanoma
PC-3 prostate = tested on: PC-3 prostate
OVCAR-3 ovarian = tested on: OVCAR-3 ovarian
A549 NSCLC = tested on: A549 NSCLC
UO-31 renal = tested on: UO-31 renal
NCI-H23 lung = tested on: NCI-H23 lung
RXF 393 renal = tested on: RXF 393 renal
MOLT-4 leukemia = tested on: MOLT-4 leukemia
NCI/ADR-RES ovarian = tested on: NCI/ADR-RES ovarian
HCC-2998 colon = tested on: HCC-2998 colon
NCI-H460 NSCLC = tested on: NCI-H460 NSCLC
NCI-H522 lung = tested on: NCI-H522 lung
DU-145 prostate = tested on: DU-145 prostate
HT29 colon = tested on: HT29 colon
OVCAR-4 ovarian = tested on: OVCAR-4 ovarian
SF-295 CNS = tested on: SF-295 CNS
HL-60(TB) leukemia = tested on: HL-60(TB) leukemia
UACC-257 melanoma = tested on: UACC-257 melanoma
786-0 renal = tested on: 786-0 renal
T-47D breast = tested on: T-47D breast
COLO 205 colon = tested on: COLO 205 colon
SK-MEL-2 melanoma = tested on: SK-MEL-2 melanoma
OVCAR-8 ovarian = tested on: OVCAR-8 ovarian
SNB-19 CNS = tested on: SNB-19 CNS
LOX IMVI melanoma = tested on: LOX IMVI melanoma
ACHN renal = tested on: ACHN renal
SK-MEL-28 melanoma = tested on: SK-MEL-28 melanoma
BT-549 breast = tested on: BT-549 breast
SK-MEL-5 melanoma = tested on: SK-MEL-5 melanoma
SF-268 CNS = tested on: SF-268 CNS
NCI-H322M lung = tested on: NCI-H322M lung
MDA-MB-231 breast = tested on: MDA-MB-231 breast
U251 glioblastoma = tested on: U251 glioblastoma
MCF7 breast = tested on: MCF7 breast
M14 melanoma = tested on: M14 melanoma
UACC-62 melanoma = tested on: UACC-62 melanoma
TK-10 renal = tested on: TK-10 renal
A498 renal = tested on: A498 renal
EKVX NSCLC = tested on: EKVX NSCLC
HOP-62 NSCLC = tested on: HOP-62 NSCLC
RPMI-8226 leukemia = tested on: RPMI-8226 leukemia
MDA-MB-468 breast = tested on: MDA-MB-468 breast
SK-OV-3 ovarian = tested on: SK-OV-3 ovarian
CCRF-CEM leukemia = tested on: CCRF-CEM leukemia

O=C1Cc2cc(C(=O)NC3C[C@H]4CC[C@@H](C3)N4S(=O)(=O)CC3CCN(CCCC(F)(F)F)CC3)c(Cl)cc2N1 (stereo partly drawn)
GI50 (HCT-15 colon): > 46.3 µM | TGI (HCT-15 colon): > 64.5 µM | GI50 (NCI-H226 lung): > 100 µM | TGI (NCI-H226 lung): > 100 µM | GI50 (OVCAR-5 ovarian): > 49.9 µM | TGI (OVCAR-5 ovarian): > 73.1 µM | GI50 (CAKI-1 renal): > 46.2 µM | TGI (CAKI-1 renal): > 65.5 µM | GI50 (HOP-92 NSCLC): > 100 µM | TGI (HOP-92 NSCLC): > 100 µM | GI50 (IGROV1 ovarian): > 57.9 µM | TGI (IGROV1 ovarian): > 100 µM | GI50 (SNB-75 CNS): > 100 µM | TGI (SNB-75 CNS): > 100 µM | GI50 (KM12 colon): > 100 µM | TGI (KM12 colon): > 100 µM | GI50 (MDA-MB-435 melanoma): > 100 µM | TGI (MDA-MB-435 melanoma): > 100 µM | GI50 (SF-539 CNS): > 100 µM | TGI (SF-539 CNS): > 100 µM | GI50 (SW-620 colon): > 58.1 µM | TGI (SW-620 colon): > 100 µM | GI50 (SR leukemia): 38.7 µM | TGI (SR leukemia): 99.3 µM | GI50 (K-562 leukemia): > 42.3 µM | TGI (K-562 leukemia): > 56.5 µM | GI50 (SN12C renal): > 62.4 µM | TGI (SN12C renal): > 100 µM | GI50 (HCT-116 colon): > 42 µM | TGI (HCT-116 colon): > 56.5 µM | GI50 (MALME-3M melanoma): > 100 µM | TGI (MALME-3M melanoma): > 100 µM | GI50 (PC-3 prostate): > 52.1 µM | TGI (PC-3 prostate): > 74.7 µM | GI50 (OVCAR-3 ovarian): > 45 µM | TGI (OVCAR-3 ovarian): > 63.5 µM | GI50 (A549 NSCLC): > 51 µM | TGI (A549 NSCLC): > 81 µM | GI50 (UO-31 renal): 23.2 µM | TGI (UO-31 renal): 47.5 µM | GI50 (NCI-H23 lung): > 52.9 µM | TGI (NCI-H23 lung): > 71.2 µM | GI50 (RXF 393 renal): > 78.5 µM | TGI (RXF 393 renal): > 100 µM | GI50 (MOLT-4 leukemia): > 67 µM | TGI (MOLT-4 leukemia): > 100 µM | GI50 (NCI/ADR-RES ovarian): > 100 µM | TGI (NCI/ADR-RES ovarian): > 100 µM | GI50 (HCC-2998 colon): > 100 µM | TGI (HCC-2998 colon): > 100 µM | GI50 (NCI-H460 NSCLC): > 100 µM | TGI (NCI-H460 NSCLC): > 100 µM | GI50 (NCI-H522 lung): > 44.7 µM | TGI (NCI-H522 lung): > 58.9 µM | GI50 (DU-145 prostate): > 51.2 µM | TGI (DU-145 prostate): > 80 µM | GI50 (HT29 colon): > 100 µM | TGI (HT29 colon): > 100 µM | GI50 (OVCAR-4 ovarian): > 100 µM | TGI (OVCAR-4 ovarian): > 100 µM | GI50 (SF-295 CNS): > 100 µM | TGI (SF-295 CNS): > 100 µM | GI50 (HL-60(TB) leukemia): > 46.1 µM | TGI (HL-60(TB) leukemia): > 60.4 µM | GI50 (UACC-257 melanoma): > 100 µM | TGI (UACC-257 melanoma): > 100 µM | GI50 ([…]-0 renal): > 100 µM | TGI (786-0 renal): > 100 µM | GI50 (T-47D breast): 60.3 µM | TGI (T-47D breast): > 100 µM | GI50 (COLO 205 colon): > 78 µM | TGI (COLO 205 colon): > 100 µM | GI50 (SK-MEL-2 melanoma): > 87 µM | TGI (SK-MEL-2 melanoma): > 100 µM | GI50 (OVCAR-8 ovarian): > 44.1 µM | TGI (OVCAR-8 ovarian): > 61.9 µM | GI50 (SNB-19 CNS): > 49.8 µM | TGI (SNB-19 CNS): > 74.9 µM | GI50 (LOX IMVI melanoma): 19.2 µM | TGI (LOX IMVI melanoma): 33.8 µM | GI50 (ACHN renal): > 50.1 µM | TGI (ACHN renal): > 77.9 µM | GI50 (SK-MEL-28 melanoma): > 100 µM | TGI (SK-MEL-28 melanoma): > 100 µM | GI50 (BT-549 breast): > 49.1 µM | TGI (BT-549 breast): > 73.8 µM | GI50 (SK-MEL-5 melanoma): > 43.5 µM | TGI (SK-MEL-5 melanoma): > 57.5 µM | GI50 (SF-268 CNS): > 100 µM | TGI (SF-268 CNS): > 100 µM | GI50 (NCI-H322M lung): > 100 µM | TGI (NCI-H322M lung): > 100 µM | GI50 (MDA-MB-231 breast): > 100 µM | TGI (MDA-MB-231 breast): > 100 µM | GI50 (U251 glioblastoma): > 100 µM | TGI (U251 glioblastoma): > 100 µM | GI50 (MCF7 breast): > 100 µM | TGI (MCF7 breast): > 100 µM | GI50 (M14 melanoma): > 100 µM | TGI (M14 melanoma): > 100 µM | GI50 (UACC-62 melanoma): > 100 µM | TGI (UACC-62 melanoma): > 100 µM | GI50 (TK-10 renal): > 46.4 µM | TGI (TK-10 renal): > 65.3 µM | GI50 (A498 renal): > 100 µM | TGI (A498 renal): > 100 µM | GI50 (EKVX NSCLC): > 100 µM | TGI (EKVX NSCLC): > 100 µM | GI50 (HOP-62 NSCLC): > 49.6 µM | TGI (HOP-62 NSCLC): > 73.6 µM | GI50 (RPMI-8226 leukemia): > 45.6 µM | TGI (RPMI-8226 leukemia): > 59.3 µM | GI50 (MDA-MB-468 breast): 25.5 µM | TGI (MDA-MB-468 breast): 57.7 µM | GI50 (SK-OV-3 ovarian): > 47.3 µM | TGI (SK-OV-3 ovarian): > 72.8 µM | GI50 (CCRF-CEM leukemia): > 43.8 µM | TGI (CCRF-CEM leukemia): > 57.7 µM
